Test results from PMC12373846, “Hemoglobin as a pseudoperoxidase and drug target for oxidative stress-related diseases” (Signal Transduction and Targeted Therapy, 2025).
Several values for one entry are separate records, joined by “and”; a condition that tells them apart may be missing. Identical values can stand only once. Like-named read-outs stand apart in the source and are kept apart here.

How the values were obtained:
GiD mice = assay: Novel place recognition test, GiD mice; type: in vivo, mouse; settings: GiD+KDS12025 0.1mpk ad libitum, Fig. S11e
aged C57BL/6J mice = assay: Survival of aging mice; type: in vivo, mouse
Protocol: Aged 1-year-old C57BL/6J animals were purchased from Janvier Labs (France) and quarantined in the IBS Animal Facility for 2 weeks before the experiment. The animals were weighed, and their water consumption (in grams) was monitored for 3 days before the appropriate drug concentration was calculated for each dose group. The animals were randomly assigned to the drug/control and dose groups. […] The drug concentration (in water) was modified on the basis of changes in animal weight and corresponding water consumption every 3 months. Basal body temperature and body weight were monitored every 2 weeks. The care and handling of the animals were performed in accordance with the guidelines of the Institutional Animal Care and Use Committee of IBS (Daejeon, South Korea).

ACE (h) = biological target: T1, ACE (h) (Homo sapiens, UniProt P12821); assay: SafetyScreen87 panel; type: biochemical; settings: 1.00E-06, read-out: % Inhibition of Control Specific Binding (1st, 2nd, Mean)
T1 construct: purchased Eurofins Discovery (Cerep, France)
Protocol: (§1) The possibility of KDS12025 on kinase off-target, the KINOMEscan panel of scanEDGE assay was conducted in DiscoverX (CA, USA) using a site-directed competition binding with the test compounds. The assay results are given in Supplementary Table 4 and experimental information is available on the DiscoverX web page (www.discoverx.com). Moreover, the Delta SafetyScreen87 panel assay was conducted in Eurofins Discovery (Cerep, France). The assay results are given in Supplementary Table 5 and experimental information is available on the DiscoverX web page (https://www.eurofinsdiscoveryservices.com).

ATPase (Na+/K+) = assay: SafetyScreen87 panel; type: biochemical; settings: 1.00E-06; read-out: % Inhibition of Control Specific Binding (1st, 2nd, Mean)
Protocol: as §1

COX1(h) = biological target: T2, COX1(h) (Homo sapiens, UniProt P23219); assay: SafetyScreen87 panel; type: biochemical; settings: 1.00E-06, read-out: % Inhibition of Control Specific Binding (1st, 2nd, Mean)
T2 construct: Eurofins Discovery (Cerep, France) SafetyScreen87 panel
T2 sequence (P23219 24-599): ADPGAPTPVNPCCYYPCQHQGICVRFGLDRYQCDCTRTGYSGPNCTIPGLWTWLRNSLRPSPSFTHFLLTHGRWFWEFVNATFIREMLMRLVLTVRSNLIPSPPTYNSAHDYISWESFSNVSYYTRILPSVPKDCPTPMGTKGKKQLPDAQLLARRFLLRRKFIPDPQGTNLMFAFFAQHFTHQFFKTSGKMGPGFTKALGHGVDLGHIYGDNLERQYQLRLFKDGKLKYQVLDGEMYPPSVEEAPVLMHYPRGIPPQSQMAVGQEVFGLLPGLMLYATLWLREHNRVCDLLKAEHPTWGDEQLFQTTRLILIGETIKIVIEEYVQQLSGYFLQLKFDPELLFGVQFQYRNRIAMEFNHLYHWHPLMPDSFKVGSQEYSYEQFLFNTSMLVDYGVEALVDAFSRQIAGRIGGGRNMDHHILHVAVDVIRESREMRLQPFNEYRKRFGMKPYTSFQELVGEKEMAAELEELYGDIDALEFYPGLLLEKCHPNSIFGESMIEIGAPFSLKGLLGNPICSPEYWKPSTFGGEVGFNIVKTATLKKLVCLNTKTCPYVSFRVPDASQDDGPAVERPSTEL
Protocol: as §1

COX2(h) = biological target: T3, COX2(h) (Homo sapiens, UniProt P35354); assay: SafetyScreen87 panel; type: biochemical; settings: 1.00E-06, read-out: % Inhibition of Control Specific Binding (1st, 2nd, Mean)
T3 construct: purchased Eurofins Discovery (Cerep, France)
Protocol: as §1

IRK (h) (InsR) = biological target: T4, IRK (h) (InsR) (Homo sapiens, UniProt P06213); assay: SafetyScreen87 panel; type: biochemical
T4 construct: purchased Eurofins Discovery (Cerep, France)
Protocol: as §1

Lck kinase (h) = biological target: T5, Lck kinase (h) (Homo sapiens, UniProt P06239); assay: SafetyScreen87 panel; type: biochemical; settings: 1.00E-06, read-out: % Inhibition of Control Specific Binding (1st, 2nd, Mean)
T5 construct: purchased Eurofins Discovery (Cerep, France)
T5 sequence (P06239 whole entry): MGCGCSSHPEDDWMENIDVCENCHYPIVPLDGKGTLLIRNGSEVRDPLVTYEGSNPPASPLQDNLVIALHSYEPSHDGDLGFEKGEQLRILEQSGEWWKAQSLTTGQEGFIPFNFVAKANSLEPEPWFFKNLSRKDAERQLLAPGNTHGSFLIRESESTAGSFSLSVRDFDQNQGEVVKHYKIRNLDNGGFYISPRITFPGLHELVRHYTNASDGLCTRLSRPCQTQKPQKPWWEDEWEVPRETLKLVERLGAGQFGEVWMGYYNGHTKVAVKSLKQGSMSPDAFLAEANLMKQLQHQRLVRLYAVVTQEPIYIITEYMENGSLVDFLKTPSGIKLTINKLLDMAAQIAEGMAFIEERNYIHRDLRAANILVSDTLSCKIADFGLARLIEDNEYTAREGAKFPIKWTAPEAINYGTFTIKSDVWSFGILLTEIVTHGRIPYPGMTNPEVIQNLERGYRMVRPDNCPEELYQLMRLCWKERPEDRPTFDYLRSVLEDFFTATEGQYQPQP
Protocol: as §1

[1] = biological target: T6, MAO-B (h) recombinant enzyme (Homo sapiens, UniProt P27338); assay: SafetyScreen87 panel; type: biochemical; settings: 1.00E-06, read-out: % Inhibition of Control Specific Binding (1st, 2nd, Mean)
T6 construct: purchased Eurofins Discovery (Cerep, France)
T6 sequence (P27338 whole entry): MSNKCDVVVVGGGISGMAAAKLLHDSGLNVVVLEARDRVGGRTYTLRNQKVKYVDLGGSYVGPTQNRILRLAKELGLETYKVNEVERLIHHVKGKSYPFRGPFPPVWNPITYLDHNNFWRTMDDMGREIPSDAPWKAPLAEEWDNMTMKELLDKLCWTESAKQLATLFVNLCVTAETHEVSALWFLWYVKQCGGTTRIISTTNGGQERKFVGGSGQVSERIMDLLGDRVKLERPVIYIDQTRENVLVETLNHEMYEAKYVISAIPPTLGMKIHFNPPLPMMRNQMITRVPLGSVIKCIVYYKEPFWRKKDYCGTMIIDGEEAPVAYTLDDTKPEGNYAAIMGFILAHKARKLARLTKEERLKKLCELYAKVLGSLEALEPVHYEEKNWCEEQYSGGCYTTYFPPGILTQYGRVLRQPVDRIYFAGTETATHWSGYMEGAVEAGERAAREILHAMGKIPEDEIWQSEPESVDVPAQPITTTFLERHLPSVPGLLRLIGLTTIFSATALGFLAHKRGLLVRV
Protocol: as §1

PDE3A (h) = biological target: T7, PDE3A (h) (Homo sapiens, UniProt Q14432); assay: SafetyScreen87 panel; type: biochemical
T7 construct: purchased Eurofins Discovery (Cerep, France)
T7 sequence (Q14432 whole entry): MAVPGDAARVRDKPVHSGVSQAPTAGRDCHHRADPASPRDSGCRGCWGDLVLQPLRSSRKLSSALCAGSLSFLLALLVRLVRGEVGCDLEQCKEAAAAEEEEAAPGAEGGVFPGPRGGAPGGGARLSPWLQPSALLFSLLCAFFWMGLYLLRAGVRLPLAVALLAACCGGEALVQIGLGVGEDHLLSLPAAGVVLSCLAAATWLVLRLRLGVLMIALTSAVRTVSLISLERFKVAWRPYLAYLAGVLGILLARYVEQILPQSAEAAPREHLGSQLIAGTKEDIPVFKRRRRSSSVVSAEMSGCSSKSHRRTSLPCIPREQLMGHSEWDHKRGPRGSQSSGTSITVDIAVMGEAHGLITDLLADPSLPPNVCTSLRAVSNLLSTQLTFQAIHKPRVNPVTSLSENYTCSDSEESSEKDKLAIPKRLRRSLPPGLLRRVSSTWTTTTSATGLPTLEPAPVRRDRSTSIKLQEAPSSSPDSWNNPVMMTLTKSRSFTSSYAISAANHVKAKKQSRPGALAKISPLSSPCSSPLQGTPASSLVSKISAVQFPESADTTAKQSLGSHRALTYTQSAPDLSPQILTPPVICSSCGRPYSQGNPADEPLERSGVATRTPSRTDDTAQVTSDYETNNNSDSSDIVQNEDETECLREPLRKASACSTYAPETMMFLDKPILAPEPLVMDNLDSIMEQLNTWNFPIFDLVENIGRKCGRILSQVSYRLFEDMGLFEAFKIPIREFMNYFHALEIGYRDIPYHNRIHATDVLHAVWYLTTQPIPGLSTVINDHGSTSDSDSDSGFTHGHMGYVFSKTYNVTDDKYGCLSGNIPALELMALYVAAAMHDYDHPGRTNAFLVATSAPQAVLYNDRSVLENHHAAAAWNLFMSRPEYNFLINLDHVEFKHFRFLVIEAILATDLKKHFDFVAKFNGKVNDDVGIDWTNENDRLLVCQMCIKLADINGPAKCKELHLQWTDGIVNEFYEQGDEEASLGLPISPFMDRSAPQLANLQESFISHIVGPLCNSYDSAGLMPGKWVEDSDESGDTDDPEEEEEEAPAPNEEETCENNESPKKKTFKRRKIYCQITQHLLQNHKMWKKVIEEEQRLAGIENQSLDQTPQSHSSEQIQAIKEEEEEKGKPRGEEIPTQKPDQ
Protocol: as §1

PDE4D2 (h) = biological target: T8, PDE4D2 (h) (Homo sapiens, UniProt Q08499); assay: SafetyScreen87 panel; type: biochemical
T8 construct: purchased Eurofins Discovery (Cerep, France)
T8 sequence (Q08499 303-809 limits assumed): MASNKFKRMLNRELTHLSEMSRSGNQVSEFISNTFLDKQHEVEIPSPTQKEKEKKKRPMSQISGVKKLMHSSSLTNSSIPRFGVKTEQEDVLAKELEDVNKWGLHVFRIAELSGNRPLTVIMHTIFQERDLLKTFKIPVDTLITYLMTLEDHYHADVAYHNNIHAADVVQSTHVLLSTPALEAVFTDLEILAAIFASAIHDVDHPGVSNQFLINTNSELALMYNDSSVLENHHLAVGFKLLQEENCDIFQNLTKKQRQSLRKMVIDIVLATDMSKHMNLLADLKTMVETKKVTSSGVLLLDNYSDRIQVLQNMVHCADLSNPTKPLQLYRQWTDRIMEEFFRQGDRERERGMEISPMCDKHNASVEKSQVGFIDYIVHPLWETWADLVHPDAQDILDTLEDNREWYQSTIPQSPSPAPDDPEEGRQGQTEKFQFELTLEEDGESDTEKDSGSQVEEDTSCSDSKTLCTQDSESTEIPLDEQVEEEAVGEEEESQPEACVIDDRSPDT
Protocol: as §1

PKCalpha (h) = biological target: T9, PKCalpha (h) (Homo sapiens, UniProt P17252); assay: SafetyScreen87 panel; type: biochemical; settings: 1.00E-06, read-out: % Inhibition of Control Specific Binding (1st, 2nd, Mean)
T9 construct: purchased Eurofins Discovery (Cerep, France)
Protocol: as §1

acetylcholinesterase (h) = biological target: T10, acetylcholinesterase (h) (Homo sapiens, UniProt P22303); assay: SafetyScreen87 panel; type: biochemical; settings: 1.00E-06, read-out: % Inhibition of Control Specific Binding (1st, 2nd, Mean)
T10 construct: purchased Eurofins Discovery (Cerep, France)
T10 sequence (P22303 32-614): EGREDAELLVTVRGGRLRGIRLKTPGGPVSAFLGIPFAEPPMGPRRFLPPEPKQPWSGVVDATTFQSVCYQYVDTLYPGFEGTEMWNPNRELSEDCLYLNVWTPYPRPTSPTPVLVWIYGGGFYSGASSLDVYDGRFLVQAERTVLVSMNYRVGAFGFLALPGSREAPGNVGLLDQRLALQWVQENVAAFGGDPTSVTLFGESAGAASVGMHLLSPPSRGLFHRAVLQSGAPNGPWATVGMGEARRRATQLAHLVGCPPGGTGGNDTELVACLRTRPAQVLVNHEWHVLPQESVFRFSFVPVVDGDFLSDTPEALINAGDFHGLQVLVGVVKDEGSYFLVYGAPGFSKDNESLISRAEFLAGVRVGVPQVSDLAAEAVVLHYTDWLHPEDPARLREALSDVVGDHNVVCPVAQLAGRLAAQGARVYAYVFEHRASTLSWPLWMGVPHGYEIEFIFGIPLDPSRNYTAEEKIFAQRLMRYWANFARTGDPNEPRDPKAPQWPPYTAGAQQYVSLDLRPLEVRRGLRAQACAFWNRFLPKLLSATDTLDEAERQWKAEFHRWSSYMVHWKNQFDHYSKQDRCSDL
Protocol: as §1

cathepsin G (h) = biological target: T11, cathepsin G (h) (Homo sapiens, UniProt P08311); assay: SafetyScreen87 panel; type: biochemical; settings: 1.00E-06, read-out: % Inhibition of Control Specific Binding (1st, 2nd, Mean)
T11 construct: purchased Eurofins Discovery (Cerep, France)
T11 sequence (P08311 21-255): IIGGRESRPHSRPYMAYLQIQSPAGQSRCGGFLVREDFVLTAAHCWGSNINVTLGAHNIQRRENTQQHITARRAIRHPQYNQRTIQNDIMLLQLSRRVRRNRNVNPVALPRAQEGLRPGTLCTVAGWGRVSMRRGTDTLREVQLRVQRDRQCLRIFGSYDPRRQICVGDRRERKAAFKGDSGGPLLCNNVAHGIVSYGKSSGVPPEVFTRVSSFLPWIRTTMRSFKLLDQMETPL
Protocol: as §1

[2] = 1.00E-06; read-out: % Inhibition of Control Specific Binding (1st, 2nd, Mean)
[3] = read-out: % Inhibition of Control Specific Binding (1st, 2nd, Mean); 1.00E-06

Q: How did the NPR discrimination index (GiD mice) turn out when CNc1ccc(NCCc2ccccc2OC)cc1.Cl [KDS12025, N^1-(2-methoxyphenethyl)-N^4-methylbenzene-1,4-diamine hydrochloride salt] was run?
A: Its NPR discrimination index is “WT (0.2256±0.0275, n=3), GiD (-0.02438±0.07989, n=3), GiD+KDS12025 (0.1mpk) (0.2255±0.02347, n=4) One-way ANOVA with Tukey's multiple comparisons test, F(2,7) = 9.285, p = 0.01 WT vs. GiD, p = 0.02; WT vs. GiD+KDS12025 (0.1mpk), p > 0.99; GiD vs. GiD+KDS12025 (0.1mpk), p = 0.01”.

Q: What about the “increase of median survival” value (aged C57BL/6J mice; 0.1 and 1 mg/kg/day ad libitum from 14 months) of the same compound?
A: Its value is ~ 14%.

Q: And the “adverse effects during chronic administration” value (aged C57BL/6J mice; 22-month administration, 0.1 and 1 mg/kg/day)?
A: Its value is “no apparent adverse effects were observed”.

Q: And the “female mice surviving at 31 months” value (aged C57BL/6J mice; KDS12025 groups, when all control mice had died)?
A: The value was 46.7%.

Q: And the activity (ACE (h); mean)?
A: Its activity is 100%.

Q: What about the activity (ACE (h)) of the same compound?
A: The activity was 101% and 99.4%.

Q: And the activity (ATPase (Na+/K+))?
A: Its activity is 97.8%.

Q: And the activity (COX1(h); mean)?
A: Its activity is 59.3%.

Q: And the activity (COX1(h))?
A: The activity was 62.5% and 56.1%.

Q: What about the activity (COX2(h); mean) of the same compound?
A: The activity was 43.8%.

Q: And the activity (COX2(h))?
A: The activity was 42.2% and 45.3%.

Q: And the activity (IRK (h) (InsR); [2])?
A: Its activity is 109%.

Q: What about the activity (IRK (h) (InsR); [3]) of the same compound?
A: The activity was 100%.

Q: What about the activity (Lck kinase (h); mean) of the same compound?
A: The activity was 94.1%.

Q: What about the activity (Lck kinase (h)) of the same compound?
A: The activity was 95.9% and 92.2%.

Q: What about the activity ([1]; mean) of the same compound?
A: Its activity is 119%.

Q: And the activity [1]?
A: Its activity is 116% and 121%.

Q: And the activity (PDE3A (h); [2])?
A: The activity was 89.8%.

Q: What about the activity (PDE3A (h); [3]) of the same compound?
A: The activity was 87.1% and 92.4%.

Q: And the activity (PDE4D2 (h); [2])?
A: Its activity is 95.3% and 102%.

Q: What about the activity (PDE4D2 (h); [3]) of the same compound?
A: Its activity is 98.7%.

Q: What about the activity (PKCalpha (h); mean) of the same compound?
A: Its activity is 104%.

Q: What about the activity (PKCalpha (h)) of the same compound?
A: The activity was 105% and 103%.

Q: What about the activity (acetylcholinesterase (h); mean) of the same compound?
A: Its activity is 91.7%.

Q: And the activity (acetylcholinesterase (h))?
A: Its activity is 92.6% and 90.8%.

Q: And the activity (cathepsin G (h); mean)?
A: Its activity is 100%.

Q: What about the activity (cathepsin G (h)) of the same compound?
A: The activity was 97.2% and 103%.
